Where a name gives a salt, the structure may show the parent alone. Read-outs that look alike come from different tables or passages of the source.
Assays:
[1] = for Bioavailability: relative to iv gabapentin; for gabapentin plasma concentration rat1: 0 h
[2] = Flushed ligated colonic model in rats (gabapentin); details: for gabapentin plasma concentration Rat1: colonic intubation 10 mg/rat
Source text: The colon was flushed of fecal materials.
Each segment was observed macroscopically for irritation and any abnormality noted.

[3] = iv 1 mg/rat, 0 h
[4] = rat, in vivo, po, 40 mg/kg

SMILES: CCCCCCCCCCCCOS(=O)(=O)O.NCC1(CC(=O)O)CCCCC1 [Gabapentin lauryl sulfate]
- percent bioavailability versus neat drug ([1]; duodenal, dosage of 20 mg (FIG. 19C)): higher bioavailability than did the neat drug

SMILES: NCC1(CC(=O)O)CCCCC1 [Gabapentin, 1-(aminomethyl)cyclohexaneacetic acid, reference compound]
- gabapentin plasma concentration Rat1 ([2]; 0 h): 0 ng/mL
- gabapentin plasma concentration Rat1 ([2]; 1 h): 189 ng/mL
- Bioavailability ([2]; colonic, percent of intravenous administration): 4.9%
- macroscopic observation of colonic mucosa for irritation ([2]; excised colonic segments after 4 hour test period): no histopathological change visible to the naked eye
- gabapentin plasma concentration Rat1 [3]: 0 ng/mL
- Bioavailability ([1]; duodenal 5 mg/rat (14.8 / 14.0 mg/kg)): 62.5 ± 9.4%
- Bioavailability ([1]; duodenal 10 mg/rat (30.6 / 29.1 mg/kg)): 44.2 ± 10.1%
- Bioavailability ([1]; duodenal 20 mg/rat (59.8 / 58.1 mg/kg)): 26.2 ± 8.2%
- gabapentin plasma concentration rat1 ([1]; duodenal dose 5 mg/rat): 0 ng/mL
- gabapentin plasma concentration rat1 ([1]; duodenal dose 10 mg/rat): 0 ng/mL
- gabapentin plasma concentration rat1 ([1]; duodenal dose 20 mg/rat): 0 ng/mL

SMILES: CN(C)C(=N)N=C(N)N [Metformin HCl, metformin hydrochloride, reference compound]
- time of plasma concentration maximum after treatment [4]: about 1 hour

SMILES: CCCCCCCCCCCC(=O)O.CN(C)C(=N)N=C(N)N [Metformin laurate]
- time of plasma concentration maximum after treatment [4]: about 1 hour

Reference: patent US20050165102A1, “Compositions and dosage forms for enhanced absorption” (priority 2003, published 2005)
